Reference: patent US11744830B2, “Ameliorative agent for cytokine release syndrome and so on” (TORII PHARMACEUTICAL CO., LTD., priority 2018, dated 2023)
pIC50: −log10 of the molar value. Structures can show the parent of a compound that is named as a salt.

Tests used:
[1] = tested on: MCP-1 production; assay: CRS toxicity evaluation system using CAR-T cells: MCP-1; type: cell-based, human; details: Homo sapiens, Monocyte; CAR-T cells, target cells and monocytes, 72 hours
Method: (§1) The supernatants were collected at 72 hours after the initiation of culture, and various cytokines in each supernatant were measured by FACS multiplex assay.

[2] = tested on: IL-1β production; assay: CRS toxicity evaluation system using CAR-T cells: IL-1β; type: cell-based, human; details: for pIC50: Homo sapiens, Monocyte, CAR-T cells, target cells and monocytes, 72 hours
Method: as §1

[3] = tested on: IL-1β production in CD14^+ cells; assay: LPS stimulation-induced IL-1β production in CD14^+ cells; type: cell-based, human; details: for pIC50: Homo sapiens, 72 h, LPS 500 ng/mL, 3 days
Method: (§2) Cryopreserved PBMCs were quickly thawed in a 37° C. thermostat and added to a tube containing medium. After centrifugation (at room temperature at 300 g for 10 minutes) to remove the supernatant, the cells were suspended again in the medium, followed by counting the number of viable cells. The cell suspension was centrifuged (at room temperature at 300 g for 10 minutes) to remove the supernatant, followed by addition of MACS Buffer to suspend the cells, to which Human CD14 MicroBeads were further added. After being allowed to stand on ice for 15 minutes, the cell suspension was diluted with MACS Buffer and centrifuged (at room temperature at 300 g for 10 minutes) to remove the supernatant. MACS Buffer was added to the tube, and the cells were suspended and then applied to a separatory column to separate CD14^+ cells. The CD14^+ cell fraction was diluted with the medium and then centrifuged (at room temperature at 300 g for 10 minutes). The supernatant was removed and the cells were suspended in the medium (1 mL), followed by counting the number of viable cells. The cell suspension was adjusted with the medium to 2.4×10^5 or 3×10^5 cells/mL and seeded in a 96-well plate (2.4×10^4 cells/well), which was then allowed to stand in a CO2 incubator for 1 to 2 hours.
The culture supernatants collected in 1.2.10 were quantified for IL-1β using Human IL-1β DuoSet ELISA.

[4] = tested on: TNF-α production in PBMCs; assay: LPS stimulation-induced TNF-α production in PBMCs; type: cell-based; details: Homo sapiens, PBMC
Method: Cryopreserved PBMCs were quickly thawed in a 37° C. thermostat and added to a tube containing medium. After centrifugation (at room temperature at 300 g for 10 minutes) to remove the supernatant, the cells were suspended again in the medium (10 mL), followed by counting the number of viable cells. After centrifugation (at room temperature at 300 g for 10 minutes) to remove the supernatant, the medium was added to suspend the cells at 1×10^6 cells/mL. This cell suspension was seeded in a 96-well plate in a volume of 100 μL/well (1×10^5 cells/well). […] The cells were cultured in a CO2 incubator for 3 days to collect the culture supernatants.
(§3) The culture supernatants collected in 1.2.2 were quantified for TNF-α using Human TNF-α DuoSet ELISA.

[5] = tested on: IL-18 production; assay: CRS toxicity evaluation system using CAR-T cells: IL-18; type: cell-based; details: Homo sapiens, Monocyte, target cells and monocytes, 72 hours, reference data because of low production
Method: as §1

[6] = tested on: TNF-α production from CD14^+ cells; assay: LPS stimulation-induced TNF-α production in CD14^+ cells; type: cell-based, human; details: for pIC50: LPS 3 ng/mL, 3 days
Method: (§4) Cryopreserved PBMCs were quickly thawed in a 37° C. thermostat and added to a tube containing medium. After centrifugation (at room temperature at 300 g for 10 minutes) to remove the supernatant, the cells were suspended again in the medium, followed by counting the number of viable cells. The cell suspension was centrifuged (at room temperature at 300 g for 10 minutes) to remove the supernatant, followed by addition of MACS Buffer to suspend the cells, to which Human CD14 MicroBeads were further added. After being allowed to stand on ice for 15 minutes, the cell suspension was diluted with MACS Buffer and centrifuged (at room temperature at 300 g for 10 minutes) to remove the supernatant.
(§5) MACS Buffer was added to the tube, and the cells were suspended and then applied to a separatory column to separate CD14^+ cells. The CD14^+ cell fraction was diluted with the medium and then centrifuged (at room temperature at 300 g for 10 minutes). The supernatant was removed and the cells were suspended in the medium (1 mL), followed by counting the number of viable cells. The cell suspension was adjusted with the medium to 2.4×10^5 or 3×10^5 cells/mL and seeded in a 96-well plate (2.4×10^4 cells/well), which was then allowed to stand in a CO2 incubator for 1 to 2 hours.
as §3

[7] = tested on: OPN production from CD14^+ cells; assay: LPS stimulation-induced OPN production in CD14^+ cells; type: cell-based, human; details: for pIC50: Homo sapiens, 72 h, LPS 500 ng/mL, 3 days
Method: as §2
The collected culture supernatants were quantified for OPN using Human OPN DuoSet ELISA.

[8] = tested on: MCP-1 production from CD14^+ cells; assay: LPS stimulation-induced MCP-1 production in CD14^+ cells; type: cell-based; details: Homo sapiens, 72 h, LPS 3 ng/mL, 3 days
Method: as §4, §5
The collected culture supernatants were quantified for MCP-1 using Human CCL2/MCP-1 DuoSet ELISA.

[9] = tested on: IL-18 production from LPS-pretreated CD14^+ cells; assay: ATP stimulation-induced IL-18 production from LPS-pretreated CD14^+ cells; type: cell-based, human; details: for pIC50: Homo sapiens, CD14^+ cells (LPS-pretreated), ATP 5 mM
Method: as §4
MACS Buffer was added to the tube, and the cells were suspended and then applied to a separatory column to separate CD14^+ cells. The CD14^+ cell fraction was diluted with the medium and then centrifuged (at room temperature at 300 g for 10 minutes). The supernatant was removed and the cells were suspended in the medium (1 mL), followed by counting the number of viable cells. The cell suspension adjusted with the medium to 2×10^6 cells/mL was seeded in a 96-well plate (1×10^5 cells/well) and allowed to stand in a CO2 incubator for 1 to 2 hours. […] The cells were then stimulated with LPS (final concentration: 500 ng/mL) for 6 hours at 37° C. and an ATP solution (final concentration: 5 mM) was added thereto, and the 96-well plate was further allowed to stand in a CO2 incubator for 2 hours to collect the culture supernatants.
The collected culture supernatants were quantified for IL-18 using Human IL-18 DuoSet ELISA.

CCOC(=O)[C@H](Cc1ccccc1)NC(=O)c1cc(Cl)c(OCCN2CCN(C)CC2)c(Cl)c1O [JTE-607, (−)-ethyl N-{3,5-dichloro-2-hydroxy-4-[2-(4-methylpiperazin-1-yl)ethoxy]benzoyl}-L-phenylalaninate dihydrochloride]
pIC50 [1]: 7.42 | pIC50 [2]: 6.45 | pIC50 [3]: 8.46 | pIC50 [4]: 7.51 | pIC50 [5]: 6.06 | pIC50 ([6]; Homo sapiens, 72 h): < 6.52 | suppressive effect on TNF-α production ([6]; LPS): suppressive effect in a manner dependent on its concentration added | pIC50 [7]: 6.88 | pIC50 [8]: 7.67 | pIC50 [9]: 8.62

C[C@]12C=CC(=O)C=C1CC[C@@H]1[C@@H]2[C@@H](O)C[C@@]2(C)[C@H]1CC[C@]2(O)C(=O)CO [PSL, Prednisolone]
pIC50 [1]: 4.14 | suppressive effect on IL-1β ([2]; CRS toxicity evaluation system using CAR-T cells): no suppressive effect | pIC50 [2]: < 4.00 | pIC50 [3]: < 4.52 | suppressive effect on IL-1β production ([3]; LPS): no suppressive effect | pIC50 [4]: 7.14 | pIC50 [5]: < 4.00 | pIC50 ([6]; Homo sapiens, 72 h): 7.38 | pIC50 [6]: 7.38 | pIC50 [7]: < 4.52 | suppressive effect on OPN production ([7]; LPS): no suppressive effect | pIC50 [8]: 5.18 | pIC50 [9]: < 4.52 | suppressive effect on IL-18 production ([9]; LPS-pretreated CD14^+ cells, ATP): no suppressive effect
